Experimental data from patent publication US20260116920A1, “HUMAN TRANSFERRIN RECEPTOR BINDING PEPTIDE” (PEPTIDREAM INC., priority 2021, published 2026).
Read-outs that look alike come from different tables or passages of the source. Starred links: 1 amine or outer side, 2 acyl side, 3 side chain; linkers in the order of their positions; H or OH if unused. Positions of bridges follow the written chain, without caps; N, C: chain ends. Non-standard residues stand in square brackets, D forms with d. Residues, ends and D or L forms follow the SMILES beside them. *: point of attachment. Trp(1-CH2COOH) = N[C@@H](Cc1cn(CC(=O)O)c2ccccc12)C(=O)O; NMePhe(4-COOH) = CN[C@@H](Cc1ccc(C(=O)O)cc1)C(=O)O; X1 = O=C([C@H](Cc1cccc(C(=O)[*:3])c1)N[*:1])[*:2]; Phe(3-COOH) = N[C@@H](Cc1cccc(C(=O)O)c1)C(=O)O; Trp(7-aza) = N[C@@H](Cc1c[nH]c2ncccc12)C(=O)O; NH(CH2CH2O)8Me = COCCOCCOCCOCCOCCOCCOCCOCCN*; NMePhe(3-Cl) = CN[C@@H](Cc1cccc(Cl)c1)C(=O)O; 3Pal(6-NH2) = Nc1ccc(C[C@H](N)C(=O)O)cn1; Lys(N3) = [N-]=[N+]=NCCCC[C@H](N)C(=O)O; NMe3Pal = CN[C@@H](Cc1cccnc1)C(=O)O; NMeY = CN[C@@H](Cc1ccc(O)cc1)C(=O)O; 3Pal = N[C@@H](Cc1cccnc1)C(=O)O; 4Pal = N[C@@H](Cc1ccncc1)C(=O)O; PEG4 = NCCOCCOCCOCCOCCC(=O)O; Carboxymethyl = O=C(O)C*

Biological target: T1, human transferrin receptor (hTfR) (Homo sapiens, UniProt P02786)
T1 construct: made in house
T1 sequence (P02786 89-760 limits assumed): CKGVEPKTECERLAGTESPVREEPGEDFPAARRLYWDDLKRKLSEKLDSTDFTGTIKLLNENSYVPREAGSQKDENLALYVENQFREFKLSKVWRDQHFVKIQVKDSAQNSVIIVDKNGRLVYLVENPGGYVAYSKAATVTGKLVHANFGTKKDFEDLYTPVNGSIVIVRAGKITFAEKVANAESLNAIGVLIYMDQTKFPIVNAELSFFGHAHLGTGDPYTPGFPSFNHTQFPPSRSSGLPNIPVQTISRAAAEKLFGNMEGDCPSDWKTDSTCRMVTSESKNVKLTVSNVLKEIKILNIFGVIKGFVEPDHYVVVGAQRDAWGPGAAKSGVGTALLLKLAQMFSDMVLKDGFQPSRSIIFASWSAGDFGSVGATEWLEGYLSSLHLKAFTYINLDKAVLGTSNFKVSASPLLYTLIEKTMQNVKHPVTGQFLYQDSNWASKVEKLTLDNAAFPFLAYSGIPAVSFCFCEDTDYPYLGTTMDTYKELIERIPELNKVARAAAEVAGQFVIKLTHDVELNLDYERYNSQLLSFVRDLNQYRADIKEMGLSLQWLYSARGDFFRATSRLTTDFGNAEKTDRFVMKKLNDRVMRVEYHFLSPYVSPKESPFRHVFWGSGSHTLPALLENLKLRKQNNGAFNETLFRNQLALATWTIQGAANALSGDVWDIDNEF
Experiment: Evaluation of molecular interaction between transferrin receptor (hTfR) and peptide using surface plasmon resonance (SPR)
Format: binding
Procedure: Evaluation Test of Molecular Interaction Between Transferrin Receptor (hTfR) and Peptide Using Surface Plasmon Resonance (SPR)
The intermolecular interactions of various synthesized peptides with the transferrin receptor (hTfR) by surface plasmon resonance (SPR) of the peptides were tested by the methods described below. Specific test methods are shown below.
NTA sensor chip (Global Life Sciences Technologies Japan K.K.) was inserted into BiacoreT200 (Global Life Sciences Technologies Japan K.K.), then the priming operation was performed three times by using running buffer containing: 10 mM HEPES pH 8.0 (Nacalai Tesque, Inc.), 150 mM NaCl (Nacalai Tesque, Inc.), 0.05% Tween 20 (Nacalai Tesque, Inc.), 0.1% BSA (SIGMA-ALDRICH) and 1.0% DMSO (FUJIFILM Wako Pure Chemical Corporation), and equilibrated at a flow rate of 30 μL/min. 350 mM EDTA solution was reacted at a flow rate of 10 μL/min for 60 seconds, 0.5 mM […] solution (Kishida Chemical Co., Ltd.) was reacted at a flow rate of 10 μL/min for 60 seconds, and then the NTA sensor chip was washed with 3 mM EDTA solution (Nacalai Tesque, Inc.) at a flow rate of 10 μL/min for 60 seconds. After mixing 50 μL each of 60 mM EDC solution (Global Life Science Technologies Japan K.K.) and 650 mM NHS solution (Global Life Science Technologies Japan K.K.), the reaction was carried out at a flow rate of 10 μL/min for 420 seconds. 150 μL of 0.5 μM hTfR dimer solution was prepared by dilution with running buffer and reacted at a flow rate of 10 μL/min for 300 seconds to immobilize hTfR on the NTA sensor chip. For the human transferrin receptor (hTfR), recombinant hTfR described in Example 2 of WO2018/124121 was used. After immobilization, capping was performed by reacting with 1.0 M ethanolamine solution (Global Life Sciences Technologies Japan K.K.) at a flow rate of 10 μL/min for 420 seconds. Peptide lysate prepared in DMSO solution to 10 mM was diluted with running buffer to be a final concentration of 10 μM peptide lysate, then peptide solutions of 100 nM, 50 nM, 25 nM, 10 nM, and 5 nM were prepared. Using the above samples, the kinetics of the peptide against hTfR was obtained by SPR measurement.
The kinetic evaluation model was single-cycle kinetics, and curve fitting was performed using Biacore T200 Evaluation Software Version 3.0 (Global Life Science Technologies Japan K.K.). The binding of the peptide to hTfR was evaluated by performing curve fitting on the obtained sensorgram by least squares method and obtaining the KD value.

[1] = KD class for binding to hTfR by SPR, peptide with the linker shown in the same line, 'low signal indicates no activity', read-out: SPR
[2] = surface plasmon resonance, binding to hTfR, KD class symbol, read-out: SPR (KD value)
[3] = peptide with linker, surface plasmon resonance, read-out: SPR (KD class for binding to hTfR)

Row | Compound | Kd [1] [nM] | Kd [2] [nM] | further results
1 | CC[C@H](C)[C@@H]1NC(=O)[C@H](Cc2cccnc2)NC(=O)[C@H](Cc2ccc(N)nc2)NC(=O)[C@H](CC(N)=O)NC(=O)[C@H](Cc2c[nH]c3ccccc23)NC(=O)[C@H](C(C)C)NC(=O)[C@H](Cc2cccnc2)N(C)C(=O)[C@H](C(C)C)NC(=O)[C@H](C)NC(=O)CSC[C@@H](C(=O)NCCOCCOCCOCCOCCC(N)=O)NC(=O)[C@H](Cc2ccc(O)cc2)N(C)C(=O)[C@H](Cc2ccncc2)NC(=O)[C@H](CCCNC(=N)N)NC(=O)[C@H](CCCNC(=N)N)NC(=O)[C@H]([C@@H](C)CC)NC1=O [894_0321] ({CH2CO}-AV[NMe3Pal]VWN[3Pal(6-NH2)][3Pal]IIRR[4Pal][NMeY]C[PEG4]-NH2; thioether N-15) | 1 to 100 | – | –
2 | CC[C@H](C)[C@@H]1NC(=O)[C@H](Cc2cccnc2)NC(=O)[C@H](Cc2ccc(N)nc2)NC(=O)[C@H](CC(N)=O)NC(=O)[C@H](Cc2c[nH]c3ccccc23)NC(=O)[C@H](C(C)C)NC(=O)[C@H](Cc2cccc(Cl)c2)N(C)C(=O)[C@H](C(C)C)NC(=O)[C@H](C)NC(=O)CSC[C@@H](C(=O)NCCOCCOCCOCCOCCC(N)=O)NC(=O)[C@H](Cc2ccc(O)cc2)N(C)C(=O)[C@H](Cc2ccncc2)NC(=O)[C@H](CCCNC(=N)N)NC(=O)[C@H](CCCNC(=N)N)NC(=O)[C@H]([C@@H](C)CC)NC1=O [compound 52] ({CH2CO}-AV[NMePhe(3-Cl)]VWN[3Pal(6-NH2)][3Pal]IIRR[4Pal][NMeY]C[PEG4]-NH2; thioether N-15) | – | 1 to 100 | –
3 | CC[C@H](C)[C@@H]1NC(=O)[C@H](Cc2cccnc2)NC(=O)[C@H](Cc2ccc(N)nc2)NC(=O)[C@H](CC(N)=O)NC(=O)[C@H](Cc2cn(CC(=O)O)c3ccccc23)NC(=O)[C@H](C(C)C)NC(=O)[C@H](Cc2cccc(Cl)c2)N(C)C(=O)[C@H](C(C)C)NC(=O)[C@H](C)NC(=O)CSC[C@@H](C(=O)NCCOCCOCCOCCOCCC(N)=O)NC(=O)[C@H](Cc2ccc(O)cc2)N(C)C(=O)[C@H](Cc2cccc(C(=O)O)c2)NC(=O)[C@H](CCC(=O)NCCOCCOCCOCCOCCOCCOCCOCCOC)NC(=O)[C@H](CCCNC(=N)N)NC(=O)[C@H]([C@@H](C)CC)NC1=O [compound 85] ({CH2CO}-AV[NMePhe(3-Cl)]V[Trp(1-CH2COOH)]N[3Pal(6-NH2)][3Pal]IIRE(NH(CH2CH2O)8Me)[Phe(3-COOH)][NMeY]C[PEG4]-NH2; thioether N-15) | – | 100 to 1000 | –
4 | CC[C@H](C)[C@@H]1NC(=O)[C@H](Cc2cccnc2)NC(=O)[C@H](Cc2ccc(O)cc2)NC(=O)[C@H](CC(N)=O)NC(=O)[C@H](Cc2cn(CC(=O)O)c3ccccc23)NC(=O)[C@H](C(C)C)NC(=O)[C@H](Cc2cccc(Cl)c2)N(C)C(=O)[C@H](C(C)C)NC(=O)[C@H](C)NC(=O)CSC[C@@H](C(=O)NCCOCCOCCOCCOCCC(N)=O)NC(=O)[C@H](Cc2ccc(O)cc2)N(C)C(=O)[C@H](Cc2cccc(C(=O)O)c2)NC(=O)[C@H](CCCNC(=N)N)NC(=O)[C@H](CCCNC(=N)N)NC(=O)[C@H]([C@@H](C)CC)NC1=O [compound 74] ({CH2CO}-AV[NMePhe(3-Cl)]V[Trp(1-CH2COOH)]NY[3Pal]IIRR[Phe(3-COOH)][NMeY]C[PEG4]-NH2; thioether N-15) | – | 1 to 100 | –
5 | CC[C@H](C)[C@@H]1NC(=O)[C@H](Cc2cccnc2)NC(=O)[C@H](Cc2ccc(N)nc2)NC(=O)[C@H](CC(N)=O)NC(=O)[C@H](Cc2cn(CC(=O)O)c3ccccc23)NC(=O)[C@H](C(C)C)NC(=O)[C@H](Cc2cccc(Cl)c2)N(C)C(=O)[C@H](C(C)C)NC(=O)[C@H](C)NC(=O)CSC[C@@H](C(=O)NCC(=O)N[C@@H](CCCCN=[N+]=[N-])C(N)=O)NC(=O)[C@H](Cc2ccc(O)cc2)N(C)C(=O)[C@H](Cc2ccncc2)NC(=O)[C@H](CCCNC(=N)N)NC(=O)[C@H](CCCNC(=N)N)NC(=O)[C@H]([C@@H](C)CC)NC1=O [894_3186] ({CH2CO}-AV[NMePhe(3-Cl)]V[Trp(1-CH2COOH)]N[3Pal(6-NH2)][3Pal]IIRR[4Pal][NMeY]CG[Lys(N3)]-NH2; thioether N-15) | 1 to 100 | – | –
6 | CC[C@H](C)[C@@H]1NC(=O)[C@H](Cc2ccc(OCC(=O)O)cc2)NC(=O)[C@H](Cc2ccc(N)nc2)NC(=O)[C@H](CC(N)=O)NC(=O)[C@H](Cc2c[nH]c3ncccc23)NC(=O)[C@H](C(C)C)NC(=O)[C@H](Cc2cccc(Cl)c2)N(C)C(=O)[C@H](C(C)C)NC(=O)[C@H](C)NC(=O)CSC[C@@H](C(=O)NCCOCCOCCOCCOCCC(N)=O)NC(=O)[C@H](Cc2ccc(O)cc2)N(C)C(=O)[C@H](CCC(=O)NCCOCCOCCOCCOCCOCCOCCOCCOC)NC(=O)[C@H](CCCNC(=N)N)NC(=O)[C@H](CCC(=O)NCCOCCOCCOCCOCCOCCOCCOCCOC)NC(=O)[C@H]([C@@H](C)CC)NC1=O [compound 232] ({CH2CO}-AV[NMePhe(3-Cl)]V[Trp(7-aza)]N[3Pal(6-NH2)]Y(Carboxymethyl)IIE(NH(CH2CH2O)8Me)RE(NH(CH2CH2O)8Me)[NMeY]C[PEG4]-NH2; thioether N-15) | – | – | Kd [3]: 100 to 1000 nM
7 | CC[C@H](C)[C@@H]1NC(=O)[C@H](Cc2ccc(OC)cc2)NC(=O)[C@H](Cc2ccc(O)cc2)NC(=O)[C@H](CC(N)=O)NC(=O)[C@H](Cc2c[nH]c3ccccc23)NC(=O)[C@H](C(C)C)NC(=O)[C@H](Cc2cccc(Cl)c2)N(C)C(=O)[C@H](C(C)C)NC(=O)[C@H](C)NC(=O)CSC[C@@H](C(=O)NCCOCCOCCOCCOCCC(N)=O)NC(=O)[C@H](Cc2ccc(O)cc2)N(C)C(=O)[C@H](Cc2ccccc2)NC(=O)[C@H](CCC(N)=O)NC(=O)[C@H](CCC(N)=O)NC(=O)[C@H]([C@@H](C)CC)NC1=O [894_0331] ({CH2CO}-AV[NMePhe(3-Cl)]VWNYY(Me)IIQQF[NMeY]C[PEG4]-NH2; thioether N-15) | 1 to 100 | – | –
8 | CC[C@H](C)[C@@H]1NC(=O)[C@H](Cc2ccc(OC)cc2)NC(=O)[C@H](Cc2ccc(O)cc2)NC(=O)[C@H](CC(N)=O)NC(=O)[C@H](Cc2c[nH]c3ncccc23)NC(=O)[C@H](C(C)C)NC(=O)[C@H](Cc2cccc(Cl)c2)N(C)C(=O)[C@H](C(C)C)NC(=O)[C@H](C)NC(=O)CSC[C@@H](C(=O)NCCOCCOCCOCCOCCC(N)=O)NC(=O)[C@H](Cc2ccc(C(=O)NCCOCCOCCOCCOCCOCCOCCOCCOC)cc2)N(C)C(=O)[C@H](Cc2cccc(C(=O)NCCOCCOCCOCCOCCOCCOCCOCCOC)c2)NC(=O)[C@H](CCC(N)=O)NC(=O)[C@H](CCC(N)=O)NC(=O)[C@H]([C@@H](C)CC)NC1=O [compound 228] ({CH2CO}-AV[NMePhe(3-Cl)]V[Trp(7-aza)]NYY(Me)IIQQ[X1](NH(CH2CH2O)8Me)[NMePhe(4-COOH)](NH(CH2CH2O)8Me)C[PEG4]-NH2; thioether N-15) | – | – | Kd [3]: 1 to 100 nM
9 | CC[C@H](C)[C@@H]1NC(=O)[C@H](Cc2ccc(OC)cc2)NC(=O)[C@H](Cc2ccc(O)cc2)NC(=O)[C@H](CC(N)=O)NC(=O)[C@H](Cc2c[nH]c3ccccc23)N(C)C(=O)[C@H](C(C)C)NC(=O)[C@H](Cc2ccncc2)N(C)C(=O)[C@H](C(C)C)NC(=O)[C@H](C)NC(=O)CSC[C@@H](C(=O)NCC(=O)N[C@@H](CCCCN=[N+]=[N-])C(N)=O)NC(=O)[C@H](Cc2ccc(O)cc2)N(C)C(=O)[C@H](Cc2ccccc2)NC(=O)[C@@H](CCCNC(=N)N)NC(=O)[C@H](CCCNC(=N)N)NC(=O)[C@H]([C@@H](C)CC)NC1=O [894_3158] | 1 to 100 | – | –
10 | CC[C@H](C)[C@@H]1NC(=O)[C@H](Cc2ccc(OC)cc2)NC(=O)[C@H](Cc2ccc(O)cc2)NC(=O)[C@H](CC(N)=O)NC(=O)[C@H](Cc2cn(CC(=O)O)c3ccccc23)NC(=O)[C@H](C(C)C)NC(=O)[C@H](Cc2cccc(Cl)c2)N(C)C(=O)[C@H](C(C)C)NC(=O)[C@H](C)NC(=O)CSC[C@@H](C(=O)NCCOCCOCCOCCOCCC(N)=O)NC(=O)[C@H](Cc2ccc(O)cc2)N(C)C(=O)[C@H](Cc2ccccc2)NC(=O)[C@H](CCCNC(=N)N)NC(=O)[C@H](CCCNC(=N)N)NC(=O)[C@H](CCC(=O)O)NC1=O [compound 43] | – | 1 to 100 | –
11 | CC[C@H](C)[C@@H]1NC(=O)[C@H](Cc2ccc(OC)cc2)NC(=O)[C@H](Cc2ccc(N)nc2)NC(=O)[C@H](CC(N)=O)NC(=O)[C@H](Cc2c[nH]c3ccccc23)NC(=O)[C@H](C(C)C)NC(=O)[C@H](Cc2cccc(Cl)c2)N(C)C(=O)[C@H](C(C)C)NC(=O)[C@H](C)NC(=O)CSC[C@@H](C(=O)NCC(=O)N[C@@H](CCCCN=[N+]=[N-])C(N)=O)NC(=O)[C@H](Cc2ccc(O)cc2)N(C)C(=O)[C@H](Cc2ccncc2)NC(=O)[C@H](CCCNC(=N)N)NC(=O)[C@H](CCCNC(=N)N)NC(=O)[C@H]([C@@H](C)CC)NC1=O [894_3190] | 1 to 100 | – | –
